Test results: patent publication US20240158412A1 (Faxian Therapeutics, LLC, priority 2021, published 2024)

molecular target: USP7 (Homo sapiens, UniProt Q93009); assay: biochemical
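Further: fluorescence intensity readout of USP7 enzymatic activity, reaction incubated 90 min at room temperature.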

Chain of USP7 (Q93009 whole entry): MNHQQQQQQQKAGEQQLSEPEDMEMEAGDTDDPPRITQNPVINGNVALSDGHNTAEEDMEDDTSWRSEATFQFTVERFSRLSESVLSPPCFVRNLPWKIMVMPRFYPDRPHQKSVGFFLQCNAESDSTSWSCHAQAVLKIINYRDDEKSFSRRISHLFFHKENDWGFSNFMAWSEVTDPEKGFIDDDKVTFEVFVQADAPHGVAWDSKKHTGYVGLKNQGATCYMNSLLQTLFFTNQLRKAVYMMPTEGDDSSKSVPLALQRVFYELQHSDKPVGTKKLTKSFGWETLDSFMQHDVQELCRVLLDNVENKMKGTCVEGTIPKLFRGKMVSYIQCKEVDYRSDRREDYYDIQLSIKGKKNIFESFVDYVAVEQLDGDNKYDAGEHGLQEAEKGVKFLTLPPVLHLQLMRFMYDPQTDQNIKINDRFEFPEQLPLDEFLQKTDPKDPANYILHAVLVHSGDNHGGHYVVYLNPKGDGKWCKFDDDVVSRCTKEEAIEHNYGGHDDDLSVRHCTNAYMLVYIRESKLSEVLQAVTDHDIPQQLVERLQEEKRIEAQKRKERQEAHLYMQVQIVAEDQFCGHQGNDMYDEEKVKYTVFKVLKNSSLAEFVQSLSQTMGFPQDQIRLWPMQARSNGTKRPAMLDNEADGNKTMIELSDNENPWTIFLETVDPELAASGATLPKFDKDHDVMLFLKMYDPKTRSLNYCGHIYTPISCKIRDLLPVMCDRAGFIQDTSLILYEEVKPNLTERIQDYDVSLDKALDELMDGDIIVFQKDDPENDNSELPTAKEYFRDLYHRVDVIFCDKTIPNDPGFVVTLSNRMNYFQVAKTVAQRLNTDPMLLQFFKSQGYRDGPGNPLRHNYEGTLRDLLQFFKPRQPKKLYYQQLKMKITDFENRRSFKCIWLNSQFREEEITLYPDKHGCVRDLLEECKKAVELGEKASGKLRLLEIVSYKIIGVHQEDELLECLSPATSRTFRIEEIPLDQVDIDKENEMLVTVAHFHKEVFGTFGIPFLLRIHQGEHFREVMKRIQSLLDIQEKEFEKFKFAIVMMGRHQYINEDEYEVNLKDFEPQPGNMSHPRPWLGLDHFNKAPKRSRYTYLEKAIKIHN

IC50 [nM]	SMILES
< 10	O=C1CCC(=O)N1Cc1cc2nccc(-c3cc(Cl)cc4c3N([C@@H]3CNC5(CCC5)C3)C[C@H]3C[C@@H]43)c2s1 [Example 165c, 1-((7-((1aS,7bR)-6-chloro-3-((S)-5-azaspiro[3.4]octan-7-yl)-1a,2,3,7b-tetrahydro-1H-cyclopropa[c]quinolin-4-yl)thieno[3,2-b]pyridin-2-yl)methyl)pyrrolidine-2,5-dione]
> 1000	O=C1CCC(=O)N1Cc1cc2nccc(-c3cc(Cl)cc4c3C3(CCC4)CNCCO3)c2s1 (single isomer, unassigned) [Example 229b]
101 to 1000	CN1C(=O)N(Cc2cc3nccc(-c4cc(Cl)cc5c4N(C4CNC4)CCC5)c3s2)C(=O)C12CCC2 [Example 31, 7-((7-(1-(azetidin-3-yl)-6-chloro-1,2,3,4-tetrahydroquinolin-8-yl)thieno[3,2-b]pyridin-2-yl)methyl)-5-methyl-5,7-diazaspiro[3.4]octane-6,8-dione]
< 10	O=c1ccn(C[C@H](O)C(F)(F)F)c(=O)n1Cc1cc2nccc(-c3cc(Cl)cc4c3N([C@H]3CCNC3)CCC4)c2s1 [Example 64]
10 to 100	O=C1CCC(=O)N1Cc1cc2nccc(-c3cc(Cl)cc4c3N(C3CNC3)CCC4)c2s1 [Example 1, 1-((7-(1-(azetidin-3-yl)-6-chloro-1,2,3,4-tetrahydroquinolin-8-yl)thieno[3,2-b]pyridin-2-yl)methyl)pyrrolidine-2,5-dione]
10 to 100	N#Cc1cc(-c2ccnc3cc(Cn4c(=O)ccn(CC(F)F)c4=O)sc23)c2c(c1)[C@H]1C[C@H]1CN2[C@H]1CCNC1 [Example 117c, (1aR,7bS)-4-(2-((3-(2,2-difluoroethyl)-2,6-dioxo-3,6-dihydropyrimidin-1(2H)-yl)methyl)thieno[3,2-b]pyridin-7-yl)-3-((S)-pyrrolidin-3-yl)-1a,2,3,7b-tetrahydro-1H-cyclopropa[c]quinoline-6-carbonitrile]
< 10	O=C1C2CC2C(=O)N1Cc1cc2nccc(-c3cc(Cl)cc4c3N([C@@H]3CN[C@@H](CO)C3)CCO4)c2s1 (stereo partly drawn) [Example 214, 3-((7-(7-chloro-4-((3S,5R)-5-(hydroxymethyl)pyrrolidin-3-yl)-3,4-dihydro-2H-benzo[b][1,4]oxazin-5-yl)thieno[3,2-b]pyridin-2-yl)methyl)-3-azabicyclo[3.1.0]hexane-2,4-dione]
101 to 1000	O=C1CCC(=O)N1Cc1cc2nccc(-c3cc(Cl)cc4c3N(CC3CCNCC3)CCC4)c2s1 [Example 49, 1-[[7-[6-chloro-1-(4-piperidylmethyl)-3,4-dihydro-2H-quinolin-8-yl]thieno[3,2-b]pyridin-2-yl]methyl]pyrrolidine-2,5-dione]
< 10	O=C1CCN(CC(F)(F)F)C(=O)N1Cc1cc2nccc(-c3cc(Cl)cc4c3N([C@H]3CCNC3)CCC4)c2s1 [Example 77, (S)-3-((7-(6-chloro-1-(pyrrolidin-3-yl)-1,2,3,4-tetrahydroquinolin-8-yl)thieno[3,2-b]pyridin-2-yl)methyl)-1-(2,2,2-trifluoroethyl)dihydropyrimidine-2,4(1H,3H)-dione]
< 10	O=c1ccn(CC(F)(F)F)c(=O)n1Cc1cc2nccc(-c3cc(Cl)cc4c3N([C@H]3CCNC3)C[C@H]3C[C@@H]43)c2s1 [Example 114, 3-((7-((1aS,7bR)-6-chloro-3-((S)-pyrrolidin-3-yl)-1a,2,3,7b-tetrahydro-1H-cyclopropa[c]quinolin-4-yl)thieno[3,2-b]pyridin-2-yl)methyl)-1-(2,2,2-trifluoroethyl)pyrimidine-2,4(1H,3H)-dione]
< 10	O=C1CCC(=O)N1Cc1cc2ncnc(-c3cc(Cl)cc4c3N([C@@H]3CNC5(CCC5)C3)C[C@H]3C[C@@H]43)c2s1 [Example 167a, 1-((4-((1aS,7bR)-6-chloro-3-((S)-5-azaspiro[3.4]octan-7-yl)-1a,2,3,7b-tetrahydro-1H-cyclopropa[c]quinolin-4-yl)thieno[3,2-d]pyrimidin-6-yl)methyl)pyrrolidine-2,5-dione]
< 10	C[C@]1(CO)C[C@H](N2CCOc3cc(C(F)(F)F)cc(-c4ccnc5cc(CN6C(=O)CCC6=O)sc45)c32)CN1 [Example 224, 1-((7-(4-((3S,5R)-5-(hydroxymethyl)-5-methylpyrrolidin-3-yl)-7-(trifluoromethyl)-3,4-dihydro-2H-benzo[b][1,4]oxazin-5-yl)thieno[3,2-b]pyridin-2-yl)methyl)pyrrolidine-2,5-dione]
< 10	N#Cc1cc2c(c(-c3ccnc4cc(CN5C(=O)C6CC6C5=O)sc34)c1)N([C@@H]1CNC3(CCCC3)C1)CCC2 (stereo partly drawn) [Example 178b, 8-(2-((2,4-dioxo-3-azabicyclo[3.1.0]hexan-3-yl)methyl)thieno[3,2-b]pyridin-7-yl)-1-((S)-1-azaspiro[4.4]nonan-3-yl)-1,2,3,4-tetrahydroquinoline-6-carbonitrile]
101 to 1000	N#Cc1cc(-c2ccnc3cc(Cn4c(=O)ccn(CC(F)F)c4=O)sc23)c2c(c1)[C@H]1C[C@H]1CN2[C@@H]1CCNC1 [Example 117a, (1aR,7bS)-4-(2-((3-(2,2-difluoroethyl)-2,6-dioxo-3,6-dihydropyrimidin-1(2H)-yl)methyl)thieno[3,2-b]pyridin-7-yl)-3-((R)-pyrrolidin-3-yl)-1a,2,3,7b-tetrahydro-1H-cyclopropa[c]quinoline-6-carbonitrile]
< 10	O=c1cc(C2CC2)cnn1Cc1cc2nccc(-c3cc(Cl)cc4c3N([C@@H]3CN[C@@H](CO)C3)CCC4)c2s1 [Example 186, 2-[[7-[6-chloro-1-[(3S,5R)-5-(hydroxymethyl)pyrrolidin-3-yl]-3,4-dihydro-2H-quinolin-8-yl]thieno[3,2-b]pyridin-2-yl]methyl]-5-cyclopropyl-pyridazin-3-one]
> 1000	N[C@@H]1CCN(C2CCOc3cc(Cl)cc(-c4ccnc5cc(CN6C(=O)CCC6=O)sc45)c32)C1 (stereo in doubt) [Example 230b, 1-((7-((R)-4-((R)-3-aminopyrrolidin-1-yl)-7-chlorochroman-5-yl)thieno[3,2-b]pyridin-2-yl)methyl)pyrrolidine-2,5-dione]
< 10	CC1(C)C[C@H](N2CCCc3cc(C#N)cc(-c4ccnc5cc(Cn6ncc(C7CC7)cc6=O)sc45)c32)CN1 [Example 128, (S)-8-(2-((4-cyclopropyl-6-oxopyridazin-1(6H)-yl)methyl)thieno[3,2-b]pyridin-7-yl)-1-(5,5-dimethylpyrrolidin-3-yl)-1,2,3,4-tetrahydroquinoline-6-carbonitrile]
< 10	CN1CC(=O)N(Cc2cc3nccc(-c4cc(Cl)cc5c4N([C@@H]4CNC6(CCC6)C4)CCC5)c3s2)C1=O [Example 150, (S)-3-((7-(6-chloro-1-(5-azaspiro[3.4]octan-7-yl)-1,2,3,4-tetrahydroquinolin-8-yl)thieno[3,2-b]pyridin-2-yl)methyl)-1-methylimidazolidine-2,4-dione]
< 10	CC1(C)C[C@H](N2CCCc3cc(Cl)cc(-c4ccnc5cc(CN6C(=O)CCC6=O)sc45)c32)CN1 [Example 119, (S)-1-((7-(6-chloro-1-(5,5-dimethylpyrrolidin-3-yl)-1,2,3,4-tetrahydroquinolin-8-yl)thieno[3,2-b]pyridin-2-yl)methyl)pyrrolidine-2,5-dione]
101 to 1000	C[C@H]1CCc2cc(Cl)cc(-c3ccnc4cc(CN5C(=O)CCC5=O)sc34)c2N1[C@H]1CCNC1 (single isomer, unassigned) [Example 44b]
10 to 100	O=C1CCC(=O)N1Cc1cc2ncnc(-c3cc(Cl)cc4c3N([C@H]3CNC5(CCC5)C3)C[C@@H]3C[C@H]43)c2s1 [Example 167c, 1-((4-((1aR,7bS)-6-chloro-3-((R)-5-azaspiro[3.4]octan-7-yl)-1a,2,3,7b-tetrahydro-1H-cyclopropa[c]quinolin-4-yl)thieno[3,2-d]pyrimidin-6-yl)methyl)pyrrolidine-2,5-dione]
101 to 1000	O=C1CCC(=O)N1Cc1cc2ncnc(-c3cc(Cl)cc4c3N(C3CNC5(CCC5)C3)CCC4)c2s1 (single isomer, unassigned) [Example 161b]
101 to 1000	CC1(C)OC(=O)C(Cc2cc3nccc(-c4cc(Cl)cc5c4N([C@@H]4CNC6(CCC6)C4)CCC5)c3s2)C(=O)O1 [Example 156, (S)-5-((7-(6-chloro-1-(5-azaspiro[3.4]octan-7-yl)-1,2,3,4-tetrahydroquinolin-8-yl)thieno[3,2-b]pyridin-2-yl)methyl)-2,2-dimethyl-1,3-dioxane-4,6-dione]
< 10	Cn1ccc(=O)n(Cc2cc3nccc(-c4cc(Cl)cc5c4N([C@H]4CCNC4)CCC5)c3s2)c1=O [Example 63, (S)-3-((7-(6-chloro-1-(pyrrolidin-3-yl)-1,2,3,4-tetrahydroquinolin-8-yl)thieno[3,2-b]pyridin-2-yl)methyl)-1-methylpyrimidine-2,4(1H,3H)-dione]
< 10	CC1(C)C[C@H](N2CCCc3cc(Cl)cc(-c4ccnc5cc(Cn6c(=O)ccn(CC(F)(F)F)c6=O)sc45)c32)CN1 (single isomer, unassigned) [Example 118b]
< 10	CC(C)(C)c1cnn(Cc2cc3nccc(-c4cc(C#N)cc5c4N([C@@H]4CN[C@@H](CO)C4)C[C@H]4C[C@@H]54)c3s2)c(=O)c1 (single isomer, unassigned) [Example 192a]
10 to 100	N#Cc1cc2c(c(-c3ccnc4cc(Cn5c(=O)ccn(CC(F)(F)F)c5=O)sc34)c1)N([C@H]1CCN([C@H]3CC[C@@H]3O)C1)CCC2 (single isomer, unassigned) [Example 107b]
< 10	CC1(C)C[C@H](N2CCCc3cc(C#N)cc(-c4ccnc5cc(CN6C(=O)CN(C7CC(F)(F)C7)C6=O)sc45)c32)CN1 [Example 127, (S)-8-(2-((3-(3,3-difluorocyclobutyl)-2,5-dioxoimidazolidin-1-yl)methyl)thieno[3,2-b]pyridin-7-yl)-1-(5,5-dimethylpyrrolidin-3-yl)-1,2,3,4-tetrahydroquinoline-6-carbonitrile]
< 10	CC(F)(F)Cn1ccc(=O)n(Cc2cc3nccc(-c4cc(C#N)cc5c4N([C@H]4CCNC4)CCC5)c3s2)c1=O [Example 89, (S)-8-(2-((3-(2,2-difluoropropyl)-2,6-dioxo-2,3-dihydropyrimidin-1(6H)-yl)methyl)thieno[3,2-b]pyridin-7-yl)-1-(pyrrolidin-3-yl)-1,2,3,4-tetrahydroquinoline-6-carbonitrile]
